Experimental data as given in patent publication US20250051266A1, “Novel GLV-Phenolamide: Biosynthesis and Function in Protecting Plants from Herbivore Attack” (Max-Planck-Gesellschaft zur Förderung der Wissenschaften …, priority 2021, published 2025).

Biological target: T1, NaPPO1 (Nicotiana attenuata, UniProt A0A1J6JLI9)
T1 sequence (A0A1J6JLI9 1-596): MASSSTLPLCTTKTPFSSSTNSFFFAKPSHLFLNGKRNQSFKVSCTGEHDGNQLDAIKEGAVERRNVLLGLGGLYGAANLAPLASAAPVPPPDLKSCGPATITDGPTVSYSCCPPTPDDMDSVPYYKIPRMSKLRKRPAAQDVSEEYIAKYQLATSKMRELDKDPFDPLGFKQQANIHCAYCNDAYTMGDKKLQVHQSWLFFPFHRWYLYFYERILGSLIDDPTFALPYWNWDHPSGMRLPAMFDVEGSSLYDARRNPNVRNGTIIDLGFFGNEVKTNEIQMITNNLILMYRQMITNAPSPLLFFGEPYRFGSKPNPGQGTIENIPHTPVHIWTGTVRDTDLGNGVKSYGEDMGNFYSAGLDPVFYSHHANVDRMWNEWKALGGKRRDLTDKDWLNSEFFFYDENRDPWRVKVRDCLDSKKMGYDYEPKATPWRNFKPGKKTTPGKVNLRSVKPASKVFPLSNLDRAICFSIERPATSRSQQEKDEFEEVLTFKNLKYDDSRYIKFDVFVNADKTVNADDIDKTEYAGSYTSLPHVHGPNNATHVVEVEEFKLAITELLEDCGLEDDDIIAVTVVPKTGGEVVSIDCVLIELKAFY
Assay: In vitro enzyme assay, substrate specificity of NaPPO1
Type: biochemical
Details: incubated with NaPPO1 and (Z)-3-hexenal
Description: Extracted ion chromatograms (EIC) for doubly charged CP dimer (m/z 250.13) and m/z 347.19 in E. coli expressing NaPPO1 and NaPPO2 with CP and Z3H or (E)-2-hexenal. Compounds 1, 2, 3, 4 denote isomers of CP dimer; compounds 5, 6 denote isomers of m/z 347.19.
FIG. 53 Substrate specificity of NaPPO1 and NaPPO2 enzymes. Overlay of total ion chromatograms (TIC) of enzyme assays for authentic chlorogenic acid (CGA std), N-coumaroylputrescine (CoP std), (Z)-3-hexenal or (E)-2-hexenal with purified NaPPO1/NaPPO2 from E. coli. Compounds 1 and 2 denote CGA and CoP; 3 and 4 denote contamination peaks from (Z)-3-hexenal and CoP standards, respectively.
To test this hypothesis, purified NaPPO1, NaPPO2 and NaBBL2 proteins with N-terminal hexahistidine tags after expression in Escherichia coli were isolated (FIGS. 44-45). Incubation of either NaPPO1 or NaPPO2 (NaPPO1/2) with CP and (Z)-3-hexenal yielded a m/z 347.19 peak with identical MS/MS spectrum and retention time as the m/z 347.19 induced in N. attenuata leaves (FIG. 46). Additionally, by-products of doubly charged CP dimers at m/z 250.13 ([M+2H]2+, C26H36N4O62+) which are not detected in oral secretion-induced leaves of N. attenuata WT (Data 2) were also produced in vitro (FIG. 16 and FIG. 47). These doubly charged CP dimers were only produced when the quantities of the (Z)-3-hexenal substrate were lower than those of the CP substrate in vitro. […]
In vitro assays of NaPPO1, NaPPO2, and NaBBL2: NaPPO1, NaPPO2, and NaBBL2 enzyme activity assays were performed by incubating 100 μg of the purified recombinant protein in 84 mM acetate buffer (pH 4.8) containing 20 mM (E)-N-caffeoylputrescine (BOC Sciences, catalogue #: B0005-053482) and 1 M cis-3-hexenal (Sigma, catalogue #: W256102-SAMPLE-K) or trans-2-hexenal (Sigma, catalogue #: W256005-1KG-K). During incubation of the enzyme reactions at 8° C., 1 μL of the reactions buffer was directly injected and analyzed by LC-MS every h to detect products. […]

N-coumaroylputrescine [CoP]
acceptance as substrate (new products): not accepted as substrates
